From ChEMBL document CHEMBL1201862, “PubChem BioAssay data set” (2004)
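These data come from cells grown in 96-well plates and exposed to compound for 48 hours at five concentrations. Here, GI50 denotes the concentration required for 50% inhibition of growth.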 Active and inactive are the calls of the source. Rule as the data show it: active = GI50 up to about 1.1 µM and inactive = higher.

Experiments:
Assay in all cases: growth of human tumour cells (NCI), 48 h
HOP-92 = system: HOP-92
T47D = system: T47D
Hs-578T = system: Hs-578T
LOX IMVI = system: LOX IMVI
EKVX = system: EKVX
DU-145 = system: DU-145
M14 = system: M14
NCI-H460 = system: NCI-H460
UACC-257 = system: UACC-257
HCT-15 = system: HCT-15
PC-3 = system: PC-3
NCI/ADR-RES = system: NCI/ADR-RES
SK-OV-3 = system: SK-OV-3
MDA-MB-435 = system: MDA-MB-435
OVCAR-3 = system: OVCAR-3
HCT-116 = system: HCT-116
RPMI-8226 = system: RPMI-8226
SK-MEL-2 = system: SK-MEL-2
MDA-N = system: MDA-N
OVCAR-4 = system: OVCAR-4
RXF 393 = system: RXF 393
SF-295 = system: SF-295
SF-268 = system: SF-268
COLO 205 = system: COLO 205
UO-31 = system: UO-31
SNB-19 = system: SNB-19
786-0 = system: 786-0
HT-29 = system: HT-29
MDA-MB-231 = system: MDA-MB-231
TK-10 = system: TK-10
A498 = system: A498
MOLT-4 = system: MOLT-4
U-251 = system: U-251
NCI-H226 = system: NCI-H226
A549 = system: A549
IGROV-1 = system: IGROV-1
ACHN = system: ACHN
Malme-3M = system: Malme-3M
HL-60 = system: HL-60
SK-MEL-5 = system: SK-MEL-5
SN12C = system: SN12C
NCI-H23 = system: NCI-H23
SK-MEL-28 = system: SK-MEL-28
KM12 = system: KM12
HCC 2998 = system: HCC 2998
NCI-H522 = system: NCI-H522
SF-539 = system: SF-539
SW-620 = system: SW-620
OVCAR-5 = system: OVCAR-5
MCF7 = system: MCF7
CAKI-1 = system: CAKI-1
HOP-62 = system: HOP-62
K562 = system: K562
CCRF-CEM = system: CCRF-CEM
UACC-62 = system: UACC-62
OVCAR-8 = system: OVCAR-8
SR = system: SR
SNB-75 = system: SNB-75

O=C(Cn1c(-c2ccccc2)cc2ccccc21)N1CCOCC1
GI50 (HOP-92): > 100 µM (inactive) | GI50 (T47D): > 100 µM (inactive) | GI50 (Hs-578T): > 100 µM (inactive) | GI50 (LOX IMVI): > 100 µM (inactive) | GI50 (EKVX): > 100 µM (inactive) | GI50 (DU-145): > 100 µM (inactive) | GI50 (M14): > 100 µM (inactive) | GI50 (NCI-H460): > 100 µM (inactive) | GI50 (UACC-257): > 100 µM (inactive) | GI50 (HCT-15): > 100 µM | GI50 (PC-3): 61.1 µM (inactive) | GI50 (NCI/ADR-RES): > 100 µM (inactive) | GI50 (SK-OV-3): > 100 µM (inactive) | GI50 (MDA-MB-435): > 100 µM (inactive) | GI50 (OVCAR-3): > 100 µM (inactive) | GI50 (HCT-116): > 100 µM (inactive) | GI50 (RPMI-8226): > 100 µM (inactive) | GI50 (SK-MEL-2): > 100 µM (inactive) | GI50 (MDA-N): > 100 µM (inactive) | GI50 (OVCAR-4): > 100 µM (inactive) | GI50 (RXF 393): > 100 µM (inactive) | GI50 (SF-295): > 100 µM (inactive) | GI50 (SF-268): 34.4 µM (inactive) | GI50 (COLO 205): > 100 µM (inactive) | GI50 (UO-31): > 100 µM (inactive) | GI50 (SNB-19): 79.3 µM (inactive) | GI50 (786-0): 41.4 µM (inactive) | GI50 (HT-29): > 100 µM (inactive) | GI50 (MDA-MB-231): 34.2 µM (inactive) | GI50 (TK-10): > 100 µM (inactive) | GI50 (A498): > 100 µM (inactive) | GI50 (MOLT-4): > 100 µM (inactive) | GI50 (U-251): 45 µM (inactive) | GI50 (NCI-H226): > 100 µM (inactive) | GI50 (A549): > 100 µM (inactive) | GI50 (IGROV-1): > 100 µM (inactive) | GI50 (ACHN): > 100 µM (inactive) | GI50 (Malme-3M): > 100 µM (inactive) | GI50 (HL-60): > 100 µM (inactive) | GI50 (SK-MEL-5): > 100 µM (inactive) | GI50 (SN12C): > 100 µM (inactive) | GI50 (NCI-H23): > 100 µM (inactive) | GI50 (SK-MEL-28): > 100 µM (inactive) | GI50 (KM12): > 100 µM (inactive) | GI50 (HCC 2998): > 100 µM (inactive) | GI50 (NCI-H522): > 100 µM (inactive) | GI50 (SF-539): 67.1 µM (inactive) | GI50 (SW-620): > 100 µM (inactive) | GI50 (OVCAR-5): > 100 µM (inactive) | GI50 (MCF7): > 100 µM (inactive) | GI50 (CAKI-1): > 100 µM (inactive) | GI50 (HOP-62): 32.7 µM (inactive) | GI50 (K562): > 100 µM (inactive) | GI50 (CCRF-CEM): > 100 µM (inactive) | GI50 (UACC-62): > 100 µM (inactive) | GI50 (OVCAR-8): > 100 µM (inactive)

COc1cc([C@@H]2c3cc4c(cc3[C@@H](Nc3ccc(C(=O)N[C@H]5CCc6cc(OC)c(OC)c(OC)c6-c6ccc(SC)c(=O)cc65)cc3)[C@H]3COC(=O)[C@H]23)OCO4)cc(OC)c1O
GI50 (HOP-92): 0.042 µM (active) | GI50 (LOX IMVI): < 0.01 µM (active) | GI50 (M14): < 0.01 µM (active) | GI50 (NCI-H460): < 0.01 µM (active) | GI50 (UACC-257): < 0.01 µM (active) | GI50 (HCT-15): 0.428 µM | GI50 (NCI/ADR-RES): 0.493 µM (active) | GI50 (MDA-MB-435): < 0.01 µM (active) | GI50 (HCT-116): < 0.01 µM (active) | GI50 (RPMI-8226): < 0.01 µM (active) | GI50 (SK-MEL-2): < 0.01 µM (active) | GI50 (SF-295): < 0.01 µM (active) | GI50 (SF-268): 11.7 µM (inactive) | GI50 (COLO 205): < 0.01 µM (active) | GI50 (UO-31): 0.698 µM (active) | GI50 (786-0): < 0.01 µM (active) | GI50 (HT-29): < 0.01 µM (active) | GI50 (TK-10): 15.2 µM (inactive) | GI50 (A498): 0.437 µM (active) | GI50 (MOLT-4): < 0.01 µM (active) | GI50 (U-251): < 0.01 µM (active) | GI50 (NCI-H226): < 0.01 µM (active) | GI50 (A549): < 0.01 µM (active) | GI50 (ACHN): 0.0598 µM (active) | GI50 (Malme-3M): 0.322 µM (active) | GI50 (SN12C): < 0.01 µM (active) | GI50 (NCI-H23): < 0.01 µM (active) | GI50 (SK-MEL-28): 13 µM (inactive) | GI50 (NCI-H522): < 0.01 µM (active) | GI50 (SF-539): < 0.01 µM (active) | GI50 (SW-620): < 0.01 µM (active) | GI50 (OVCAR-5): 43.1 µM (inactive) | GI50 (MCF7): < 0.01 µM (active) | GI50 (CAKI-1): 0.132 µM (active) | GI50 (K562): < 0.01 µM (active) | GI50 (CCRF-CEM): < 0.01 µM (active) | GI50 (UACC-62): < 0.01 µM (active) | GI50 (SR): < 0.01 µM (active) | GI50 (OVCAR-8): < 0.01 µM (active)

Clc1cc(Cl)ncn1
GI50 (HOP-92): > 100 µM (inactive) | GI50 (T47D): > 100 µM (inactive) | GI50 (Hs-578T): > 100 µM (inactive) | GI50 (LOX IMVI): > 100 µM (inactive) | GI50 (SNB-75): > 100 µM (inactive) | GI50 (DU-145): > 100 µM (inactive) | GI50 (M14): > 100 µM (inactive) | GI50 (NCI-H460): > 100 µM (inactive) | GI50 (HCT-15): > 100 µM | GI50 (PC-3): > 100 µM (inactive) | GI50 (NCI/ADR-RES): > 100 µM (inactive) | GI50 (SK-OV-3): > 100 µM (inactive) | GI50 (MDA-MB-435): > 100 µM (inactive) | GI50 (OVCAR-3): > 100 µM (inactive) | GI50 (HCT-116): > 100 µM (inactive) | GI50 (RPMI-8226): 40.9 µM (inactive) | GI50 (MDA-N): > 100 µM (inactive) | GI50 (OVCAR-4): > 100 µM (inactive) | GI50 (RXF 393): > 100 µM (inactive) | GI50 (SF-295): > 100 µM (inactive) | GI50 (SF-268): > 100 µM (inactive) | GI50 (COLO 205): > 100 µM (inactive) | GI50 (UO-31): > 100 µM (inactive) | GI50 (SNB-19): > 100 µM (inactive) | GI50 (786-0): > 100 µM (inactive) | GI50 (HT-29): > 100 µM (inactive) | GI50 (MDA-MB-231): > 100 µM (inactive) | GI50 (TK-10): > 100 µM (inactive) | GI50 (MOLT-4): > 100 µM (inactive) | GI50 (U-251): > 100 µM (inactive) | GI50 (NCI-H226): > 100 µM (inactive) | GI50 (A549): > 100 µM (inactive) | GI50 (IGROV-1): > 100 µM (inactive) | GI50 (ACHN): > 100 µM (inactive) | GI50 (Malme-3M): > 100 µM (inactive) | GI50 (SK-MEL-5): > 100 µM (inactive) | GI50 (SN12C): > 100 µM (inactive) | GI50 (NCI-H23): > 100 µM (inactive) | GI50 (SK-MEL-28): > 100 µM (inactive) | GI50 (KM12): > 100 µM (inactive) | GI50 (HCC 2998): > 100 µM (inactive) | GI50 (NCI-H522): > 100 µM (inactive) | GI50 (SF-539): > 100 µM (inactive) | GI50 (SW-620): > 100 µM (inactive) | GI50 (OVCAR-5): > 100 µM (inactive) | GI50 (MCF7): > 100 µM (inactive) | GI50 (CAKI-1): > 100 µM (inactive) | GI50 (HOP-62): > 100 µM (inactive) | GI50 (K562): > 100 µM (inactive) | GI50 (CCRF-CEM): > 100 µM (inactive) | GI50 (UACC-62): > 100 µM (inactive) | GI50 (SR): > 100 µM (inactive) | GI50 (OVCAR-8): > 100 µM (inactive)
